Source: patent publication US9271993B2, “Treatment of bacterial infectious diseases” (priority 2010, dated 2016)
In brackets after ≈: the same amount, converted by molar mass. Like-named read-outs stand apart in the source and are kept apart here.

Key:
[1] = tested on: clinical methicillin resistant Staphylococcus aureus (MRSA) isolates; assay: MIC against clinical MRSA isolates, LB microdilution assay
Protocol: Activity was assessed by determination of minimal inhibitory concentrations (MIC), as described in Pfister et al., Antimicrob. […] Cultures from single colonies were grown in LB medium and used for MIC tests in a microtiter plate format. Starting cultures contained 200 μl of bacterial cells at an optical density of 0.025 at 600 nm, and the respective drug was added in twofold series of dilution.

M. massiliense = assay: MIC against non-tuberculous rapidly-growing mycobacteria, microdilution; format: cell-based; settings: Mycobacteroides abscessus, read-out: minimal inhibitory concentration (MIC)
Protocol: (§1) Activity of apramycin was assessed in standard microdilution assays and is expressed as minimal inhibitory concentration (MIC) in μg/ml.

M. bolletii = assay: as above; format: cell-based; settings: Mycobacteroides abscessus, read-out: minimal inhibitory concentration (MIC)
Protocol: as §1

M. abscessus = assay: as above; format: cell-based; settings: Mycobacteroides abscessus; strain 500039/08 M. abscessus; read-out: minimal inhibitory concentration (MIC)
Protocol: as §1

bacterial ribosomes = assay: Ribosomal drug susceptibility (MIC) of recombinant bacteria; parameters: MIC, bacterial ribosomes: unit not given beside the values; settings: Table 7; 72 h incubation
E. coli = assay: MIC against gram-negative bacteria; format: cell-based; settings: Escherichia coli, read-out: MIC
Text: Agents Chemother. 2003, 47:1496-1502.

cytohybrid ribosomes = assay: Ribosomal drug susceptibility (MIC) of recombinant bacteria; parameters: MIC, cytohybrid ribosomes: unit not given beside the values; settings: Table 7; 72 h incubation
mitohybrid ribosomes = assay: as above; parameters: MIC, mitohybrid ribosomes: unit not given beside the values; settings: Table 7; 72 h incubation
M. avium-intracellulare = assay: Drug susceptibility of non-tuberculous slow-growing mycobacteria, MGIT960; format: cell-based
M. kansasii = assay: as above; format: cell-based
[2] = Staphylococcus aureus, MRSA, MRSA AG038, strain 70-26S Gm^S
[3] = Staphylococcus aureus, MRSA, MRSA AG040, strain 87-26S Gm^S
[4] = Staphylococcus aureus, MRSA, MRSA AG041, strain 98-25S Gm^S
[5] = Staphylococcus aureus, MRSA, MRSA AG042, strain 101-06R Gm^R
[6] = Staphylococcus aureus, MRSA, MRSA AG043, strain 01-08R Gm^R
[7] = Staphylococcus aureus, MRSA, MRSA AG044, strain 07-12R Gm^R
[8] = Staphylococcus aureus, MRSA, MRSA AG045, strain 08-12R Gm^R
[9] = Staphylococcus aureus, MRSA, MRSA AG048, strain 20-06R Gm^R
[10] = Staphylococcus aureus, MRSA, MRSA AG049, strain 23-12R Gm^R
[11] = Staphylococcus aureus, MRSA, MRSA AG050, strain 31-06R Gm^R
[12] = Staphylococcus aureus, MRSA, MRSA AG051, strain 36-06R Gm^R
[13] = Staphylococcus aureus, MRSA, MRSA AG052, strain 53-14I Gm^R
[14] = Staphylococcus aureus, MRSA, MRSA AG053, strain 56-06R Gm^R
[15] = strain 177217/10 M. massiliense
[16] = strain 186139/07 M. massiliense
[17] = strain 500044/09 M. massiliense
[18] = E. coli AG01, clin. isol. (Gm^S)
[19] = E. coli AG02, clin. isol (Gm^S)
[20] = E. coli AG03, clin. isol (Gm^R)
[21] = E. coli AG07, BM13/pIP135, resistance mechanism AAC(3)
[22] = E. coli AG08, BM13/pIP055, resistance mechanism ANT(2″)
[23] = E. coli AG09, AAC(6′)-1B, resistance mechanism AAC(6′)
[24] = E. coli AG36, HB101/pAT197, resistance mechanism ANT(4′)
[25] = E. coli AG37, HB101/pAG21-1, resistance mechanism APH(3′)

SMILES	MIC ([1]; Staphylococcus aureus, MRSA) [µg/mL]	MIC [1, 2] [µg/mL]	MIC [1, 3] [µg/mL]	MIC [1, 4] [µg/mL]	MIC [1, 5] [µg/mL]	MIC [1, 6] [µg/mL]	MIC [1, 7] [µg/mL]	MIC [1, 8] [µg/mL]	MIC [1, 9] [µg/mL]	MIC [1, 10] [µg/mL]	MIC [1, 11] [µg/mL]	MIC [1, 12] [µg/mL]	MIC [1, 14] [µg/mL]	MIC (M. massiliense; [15]) [µg/mL]	MIC (M. massiliense; [16]) [µg/mL]	MIC (M. massiliense; [17]) [µg/mL]	MIC (M. bolletii; strain 179639/10 M. bolletii) [µg/mL]	MIC (M. bolletii; strain 181739/08 M. bolletii) [µg/mL]	MIC (M. bolletii; strain 183177/08 M. bolletii) [µg/mL]	MIC (M. abscessus) [µg/mL]	further results
NC[C@H]1O[C@H](O[C@H]2[C@H](O)[C@@H](O[C@H]3O[C@H](CO)[C@@H](O)[C@H](N)[C@H]3O)[C@H](N)C[C@@H]2N)[C@H](N)C[C@@H]1O [Tobramycin]	128 to 256 (≈ 274 to 548 µM)	0.5 to 1 (≈ 1.07 to 2.14 µM)	≥ 256	0.5 to 1 (≈ 1.07 to 2.14 µM)	≥ 256	32 (≈ 68.4 µM)	8 (≈ 17.1 µM)	8 (≈ 17.1 µM)	≥ 256	8 to 16 (≈ 17.1 to 34.2 µM)	32 to 64 (≈ 68.4 to 137 µM)	32 to 64 (≈ 68.4 to 137 µM)	16 to 32 (≈ 34.2 to 68.4 µM)	32 (≈ 68.4 µM)	16 (≈ 34.2 µM)	8 (≈ 17.1 µM)	32 (≈ 68.4 µM)	32 (≈ 68.4 µM)	16 (≈ 34.2 µM)	4 (≈ 8.56 µM)	MIC ([1]; Staphylococcus aureus, MRSA, MRSA AG047, strain 18-06R Gm^R): ≥ 256 µg/mL; MIC [1, 13]: 8 to 16 µg/mL (≈ 17.1 to 34.2 µM); MIC, bacterial ribosomes (bacterial ribosomes): 1; MIC (E. coli; [18]): 4 to 8 µg/mL (≈ 8.56 to 17.1 µM); MIC (E. coli; [19]): 2 µg/mL (≈ 4.28 µM); MIC (E. coli; [20]): 32 µg/mL (≈ 68.4 µM); MIC (E. coli; E. coli AG06, BM13): 0.5 µg/mL (≈ 1.07 µM); MIC (E. coli; [21]): 4 µg/mL (≈ 8.56 µM); MIC (E. coli; [22]): 8 to 64 µg/mL (≈ 17.1 to 137 µM); MIC (E. coli; [23]): 64 to 128 µg/mL (≈ 137 to 274 µM); MIC (E. coli; [24]): 16 to 32 µg/mL (≈ 34.2 to 68.4 µM); MIC (E. coli; [25]): 1 to 2 µg/mL (≈ 2.14 to 4.28 µM); MIC, cytohybrid ribosomes (cytohybrid ribosomes): 512; MIC, mitohybrid ribosomes (mitohybrid ribosomes): 128
NCC[C@H](O)C(=O)N[C@@H]1C[C@H](N)[C@@H](O[C@H]2O[C@H](CN)[C@@H](O)[C@H](O)[C@H]2O)[C@H](O)[C@H]1O[C@H]1O[C@H](CO)[C@@H](O)[C@H](N)[C@H]1O [Amikacin]	256 (≈ 437 µM)	4 (≈ 6.83 µM)	16 to 32 (≈ 27.3 to 54.6 µM)	4 to 8 (≈ 6.83 to 13.7 µM)	16 (≈ 27.3 µM)	8 to 16 (≈ 13.7 to 27.3 µM)	4 (≈ 6.83 µM)	4 (≈ 6.83 µM)		8 to 16 (≈ 13.7 to 27.3 µM)	16 (≈ 27.3 µM)	8 to 16 (≈ 13.7 to 27.3 µM)	8 (≈ 13.7 µM)	8 (≈ 13.7 µM)	4 (≈ 6.83 µM)	1 (≈ 1.71 µM)	8 (≈ 13.7 µM)	4 (≈ 6.83 µM)	8 (≈ 13.7 µM)	1 (≈ 1.71 µM)	Activity (resistant/susceptible) (M. avium-intracellulare; strain 182034/06 M. avium-intracellulare, 1 μg/ml): R; Activity (resistant/susceptible) (M. avium-intracellulare; strain 182034/06 M. avium-intracellulare, 4 μg/ml): S; Activity (resistant/susceptible) (M. avium-intracellulare; strain 182034/06 M. avium-intracellulare, 10 μg/ml): S; Activity (resistant/susceptible) (M. avium-intracellulare; strain 182124/07 M. avium-intracellulare, 1 μg/ml): R; Activity (resistant/susceptible) (M. avium-intracellulare; strain 182124/07 M. avium-intracellulare, 4 μg/ml): S; Activity (resistant/susceptible) (M. avium-intracellulare; strain 182124/07 M. avium-intracellulare, 10 μg/ml): S; Activity (resistant/susceptible) (M. avium-intracellulare; strain 182550/07 M. avium-intracellulare, 1 μg/ml): R; Activity (resistant/susceptible) (M. avium-intracellulare; strain 182550/07 M. avium-intracellulare, 4 μg/ml): S; Activity (resistant/susceptible) (M. avium-intracellulare; strain 182550/07 M. avium-intracellulare, 10 μg/ml): S; MIC ([1]; MRSA AG048, strain 20-06R Gm^R): 256 µg/mL (≈ 437 µM); MIC ([1]; Staphylococcus aureus, MRSA, MRSA AG046, strain 12-06R Gm^R): 32 µg/mL (≈ 54.6 µM); MIC [1, 13]: 16 µg/mL (≈ 27.3 µM); Activity (resistant/susceptible) (M. kansasii; strain 177227/06 M. kansasii, 1 μg/ml): R; Activity (resistant/susceptible) (M. kansasii; strain 177227/06 M. kansasii, 4 μg/ml): S; Activity (resistant/susceptible) (M. kansasii; strain 177227/06 M. kansasii, 10 μg/ml): S; Activity (resistant/susceptible) (M. kansasii; strain 180235/06 M. kansasii, 1 μg/ml): R; Activity (resistant/susceptible) (M. kansasii; strain 180235/06 M. kansasii, 4 μg/ml): S; Activity (resistant/susceptible) (M. kansasii; strain 180235/06 M. kansasii, 10 μg/ml): S
NC[C@H]1O[C@H](O[C@H]2[C@H](O)[C@@H](O[C@H]3O[C@H](CO)[C@@H](O)[C@H](N)[C@H]3O)[C@H](N)C[C@@H]2N)[C@H](O)[C@@H](O)[C@@H]1O [Kanamicin A]	> 256	4 (≈ 8.26 µM)	128 to 256 (≈ 264 to 528 µM)	2 to 4 (≈ 4.13 to 8.26 µM)	256 (≈ 528 µM)	128 to 256 (≈ 264 to 528 µM)	64 (≈ 132 µM)	64 (≈ 132 µM)	> 512				256 (≈ 528 µM)	32 (≈ 66 µM)	32 (≈ 66 µM)	16 (≈ 33 µM)	64 (≈ 132 µM)	64 (≈ 132 µM)	16 (≈ 33 µM)	4 (≈ 8.26 µM)	MIC ([1]; MRSA AG047, strain 18-06R Gm^R): >256 µg/mL; MIC ([1]; MRSA AG049, strain 23-12R Gm^R): >256 µg/mL; MIC ([1]; MRSA AG050, strain 31-06R Gm^R): >256 µg/mL; MIC ([1]; MRSA AG051, strain 36-06R Gm^R): >256 µg/mL; MIC ([1]; MRSA AG052, strain 53-14I Gm^R): >256 µg/mL; MIC (E. coli; [18]): 16 µg/mL (≈ 33 µM); MIC (E. coli; [19]): 4 to 8 µg/mL (≈ 8.26 to 16.5 µM); MIC (E. coli; [20]): 16 to 32 µg/mL (≈ 33 to 66 µM); MIC (E. coli; E. coli AG06, BM13): 1 to 2 µg/mL (≈ 2.06 to 4.13 µM); MIC (E. coli; [21]): 8 µg/mL (≈ 16.5 µM); MIC (E. coli; [22]): 16 to 128 µg/mL (≈ 33 to 264 µM); MIC (E. coli; [23]): 256 to 512 µg/mL (≈ 528 to 1060 µM); MIC (E. coli; [24]): 16 to 32 µg/mL (≈ 33 to 66 µM); MIC (E. coli; [25]): > 256 µg/mL
